Measured values taken from US4816472A, “Derivatives of 19,20-Bis-nor-prostanoic acid with antiulcer and anorectic activity, process for their preparation and pharmaceutical compositions thereof” (Istituto Biochemico Italiano Giovanni Lorenzini S.p.A., priority 1985, dated 1989).

Tests used:
[1] = tested on: NaOH induced ulcers in the rat; test: Sodium hydroxide induced ulcers in the rat; type: in vivo
Procedure: (§1) The anitulcer activity of these derivatives was evaluated on ulcers induced by the administration of ethanol, hydrochloric acid and sodium hydroxide in the rat, also on gastric ulcers induced by aspirin in the rat, and on their influence on gastric secretions in the rat.
(3) Sodium hydroxide induced ulcers in the rat:
Also this test is performed in accordance with the method described by A. Robert et al, in Gastroenterology, 77,433 (1979), the disclosure of which is incorporated herein by reference.

[2] = tested on: gastric depletion in the rat; test: Gastric depletion in the rat; type: in vivo; details: 50 mg/kg
Procedure: Gastric depletion in the rat.
Rats of both sexes and mean weight of 180-200 g are used. The animals are subjected to fasting for 24 hours but have free access to water up to 3 hours prior to the test.
Preparation of phenyl red solution: 50 mg of phenyl red is mixed with 100 ml of a 1.5% methyl cellulose solution and shaken for 5 hours.
1.5 ml per rat is administered irrespective of weight.
The rats are sacrificed by cervix translocation: the stomach is taken out after ligaturing the cardias and pilorus.
The entire stomach and contents are placed in the container of a homogenizer with 50 ml of 0.1N NaOH. They are homogenized for 2 minutes at a maximum velocity. They homogenate is transferred to a test-tube and left to settle for one hour.
5 ml of the supernatant is taken out and put into a centrifuge tube and mixed with 0.5 ml of 20% (w/v) trichloroacetic acid. The tube is centrifuged at 2500 rpm for 20 min. The entire supernatant is taken and mixed with 4 ml of 0.4N NaOH, and its absorbance is measured at 560λ.
Gastric depletion is calculated according to the following formula:
(1-sample absorbance/standard absorbance)×100
As "standard absorbance" is considered the mean value of spectophotometric measurement of 4 animals sacrificed immediately after administering phenyl red.

[3] = tested on: ethanol induced ulcers in the rat; test: Ethanol induced ulcers in the rat; type: in vivo
Procedure: as §1
(1) Ethanol induced ulcers in the rat:
The method used is that described by A. Robert et al, in Gastroenterology 77,433 (1979), the disclosure of which is incorporated herein by reference.

[4] = tested on: aspirin-induced ulcers in the rat; test: Aspirin induced gastric ulcers in the rat; type: in vivo; details: 200 mg/kg of drug
Procedure: as §1
(4) Aspirin induced gastric ulcers in the rat:
For carrying out this test, the method described by H. A. Carmichael, L. M. Nelson, R. I. Russel in Gastroenterology 74, 1229 (1978) is used, the disclosure of which is incorporated herein by reference.

[5] = tested on: HCl induced ulcers in the rat; test: Hydrochloric acid induced ulcers in the rat; type: in vivo
Procedure: as §1
(2) Hydrochloric acid induced ulcers in the rat:
The method used for this test is that described by A. Robert et al, in Gastroenterology, 77,433, (1979), the disclosure of which is incorporated herein by reference.

[6] = tested on: gastric secretion in the rat; test: Gastric secretion in the rat; type: in vivo, Sprague-Dawley rats
Procedure: as §1
(5) Gastric secretion in the rat:
Sprague-Dawley rats of both sexes are used for this test. The gastric secretion is rated according to the method described by H. Shay et al in Gastroenterology 5,43 (1945) the disclosure of which is incorporated herein by reference.

CCCCCCC1CCC(O)C1CCCCCCC(=O)O (centres unmarked) [drawing 25]
Percent inhibition of NaOH induced ulcers in the rat ([1]; 50 mg/kg): 53%
Percent inhibition of NaOH induced ulcers in the rat ([1]; 100 mg/kg): 84%
Percent inhibition of NaOH induced ulcers in the rat ([1]; 200 mg/kg): 92%

CCCCCCC1CCC(NC(C)=O)C1CCCCCCC(=O)O (centres unmarked) [drawing 42]
inhibition values of gastric depletion [2]: 78%

CCCCCCC1CCC(O)C1CCCCCCC(=O)O (centres unmarked) [drawing 13]
Percent inhibition of ethanol induced ulcers in the rat ([3]; 50 mg/kg): 9%
Percent inhibition of ethanol induced ulcers in the rat ([3]; 100 mg/kg): 37%

CCCCCCC1CCC(NC)C1CCCCCCC(=O)O (centres unmarked) [drawing 21]
Percent inhibition of NaOH induced ulcers in the rat ([1]; 12.5 mg/kg): 81%
Percent inhibition of NaOH induced ulcers in the rat ([1]; 25 mg/kg): 87%

CCCCCCC1CCC(NC(C)C)C1CCCCCCC(=O)O (centres unmarked) [drawing 23]
Percent inhibition of NaOH induced ulcers in the rat ([1]; 12.5 mg/kg): 13%
Percent inhibition of NaOH induced ulcers in the rat ([1]; 25 mg/kg): 46%
Percent inhibition of NaOH induced ulcers in the rat ([1]; 50 mg/kg): 54%

CCCCCCC1CCC(NC(C)=O)C1CCCCCCC(=O)O (centres unmarked) [drawing 30]
Percent inhibition of aspirin-induced ulcers in the rat [4]: 58%

CCCCCCC1CCC(NC(C)=O)C1CCCCCCC(=O)O (centres unmarked) [drawing 12]
Percent inhibition of ethanol induced ulcers in the rat ([3]; 10 mg/kg): 25%
Percent inhibition of ethanol induced ulcers in the rat ([3]; 100 mg/kg): 78%

CCCCCCC1CCC(NC(C)=O)C1CCCCCCC(=O)O (centres unmarked) [drawing 18]
Percent inhibition of HCl induced ulcers in the rat ([5]; 25 mg/kg): 15%
Percent inhibition of HCl induced ulcers in the rat ([5]; 50 mg/kg): 66%

CCCCCCC1CCC(NC(C)C)C1CCCCCCC(=O)O (centres unmarked) [drawing 11]
Percent inhibition of ethanol induced ulcers in the rat ([3]; 10 mg/kg): 9%
Percent inhibition of ethanol induced ulcers in the rat ([3]; 25 mg/kg): 34%
Percent inhibition of ethanol induced ulcers in the rat ([3]; 50 mg/kg): 65%

CCCCCCC1CCC(NC(C)C)C1CCCCCCC(=O)O (centres unmarked) [drawing 17]
Percent inhibition of HCl induced ulcers in the rat ([5]; 25 mg/kg): 0%
Percent inhibition of HCl induced ulcers in the rat ([5]; 50 mg/kg): 46%
Percent inhibition of HCl induced ulcers in the rat ([5]; 100 mg/kg): 54%

CCCCCCC1CCC(O)C1CCCCCCC(=O)O (centres unmarked) [drawing 19]
Percent inhibition of HCl induced ulcers in the rat ([5]; 25 mg/kg): 15%
Percent inhibition of HCl induced ulcers in the rat ([5]; 100 mg/kg): 45%
Percent inhibition of HCl induced ulcers in the rat ([5]; 200 mg/kg): 63%

CCCCCCC1CCC(N(C)C)C1CCCCCCC(=O)O (centres unmarked) [drawing 16]
Percent inhibition of HCl induced ulcers in the rat ([5]; 25 mg/kg): 23%
Percent inhibition of HCl induced ulcers in the rat ([5]; 50 mg/kg): 55%
Percent inhibition of HCl induced ulcers in the rat ([5]; 100 mg/kg): 63%

CCCCCCC1CCC(NC(C)=O)C1CCCCCCC(=O)O (centres unmarked) [drawing 24]
Percent inhibition of NaOH induced ulcers in the rat ([1]; 12.5 mg/kg): 7%
Percent inhibition of NaOH induced ulcers in the rat ([1]; 25 mg/kg): 19%
Percent inhibition of NaOH induced ulcers in the rat ([1]; 50 mg/kg): 59%

CCCCCCC1CCC(NC(C)C)C1CCCCCCC(=O)O (centres unmarked) [drawing 35]
Percent inhibition of gastric secretion in the rat ([6]; 25 mg/kg, 2 h after treatment): 35%
Percent inhibition of gastric secretion in the rat ([6]; 25 mg/kg, 4 h after treatment): 0%
Percent inhibition of gastric secretion in the rat ([6]; 50 mg/kg, 2 h after treatment): 56%
Percent inhibition of gastric secretion in the rat ([6]; 50 mg/kg, 4 h after treatment): 46%
Percent inhibition of gastric secretion in the rat ([6]; 100 mg/kg, 2 h after treatment): 37%
Percent inhibition of gastric secretion in the rat ([6]; 100 mg/kg, 4 h after treatment): 54%

CCCCCCC1CCC(N)C1CCCCCCC(=O)O (centres unmarked) [drawing 14]
Percent inhibition of HCl induced ulcers in the rat ([5]; 50 mg/kg): 68%
Percent inhibition of HCl induced ulcers in the rat ([5]; 100 mg/kg): 89%
Percent inhibition of HCl induced ulcers in the rat ([5]; 200 mg/kg): 91%

CCCCCCC1CCC(NC)C1CCCCCCC(=O)O (centres unmarked) [drawing 39]
inhibition values of gastric depletion [2]: 33%

CCCCCCC1CCC(O)C1CCCCCCC(=O)O (centres unmarked) [drawing 31]
Percent inhibition of aspirin-induced ulcers in the rat [4]: 64%

CCCCCCC1CCC(O)C1CCCCCCC(=O)O (centres unmarked) [drawing 37]
Percent inhibition of gastric secretion in the rat ([6]; 25 mg/kg, 2 h after treatment): 0%
Percent inhibition of gastric secretion in the rat ([6]; 25 mg/kg, 4 h after treatment): 15%
Percent inhibition of gastric secretion in the rat ([6]; 50 mg/kg, 2 h after treatment): 30%
Percent inhibition of gastric secretion in the rat ([6]; 100 mg/kg, 2 h after treatment): 50%
Percent inhibition of gastric secretion in the rat ([6]; 100 mg/kg, 4 h after treatment): 45%
